These results are taken from patent US8198279B2, “Pyrido[2,3-b]pyrazin-8-substituted compounds and their use” (Institute of Cancer Research: Royal Cancer Hospital (The), priority 2007, dated 2012).

Several values for one entry are separate records, joined by “and”; a condition that tells them apart may be missing. Equal entries are not always repeated.

The target in the assay is T1, B-RAF (Homo sapiens, UniProt P15056, V600E).
T1 construct: made in house
Description: DELFIA Kinase Assay. Type of assay: biochemical. To be noted: 100 μM ATP, GST-MEK substrate. The protocol: Biological Methods—DELFIA Kinase Assay
Compounds were assessed by a kinase assay performed according to the following protocol.
DKB1 (DKB with B-RAF and MEK Protein):
Combine 4950 μL of DKB and 50 μL of 2.5 mg/ml GST-MEK stock (to give […] of MEK per 40 μL). Then add 22.5 μL of B-RAF to give ˜0.2 μL of B-RAF per 40 μL.
100 mM stock, dilute to 500 μM to give 100 μM final concentration in assay.
• 1. Preblock wells with 5% milk in TBS for 1 hour. • 2. Wash wells with 3× with 200 μL TBS. • 3. Plate out 40 μL of DKB1 for all inhibitors (test compounds), DMSO control, and optionally other control compounds. • 4. Plate out 40 μL of DKB2 for BO and EV wells. • 5. Add inhibitors (test compounds) at 0.5 μL per well according to desired plate layout. • 6. Add 0.5 μL DMSO to vehicle control wells. • 7. Add 2 μL of B-RAF to BO and EV wells. • 8. Pre-incubate with inhibitors (test compounds) for 10 minutes at room temperature with shaking. • 9. Add 10 μL of 500 μM ATP stock, in DKB, to give 100 μM assay concentration. • 10. Seal plates with TopSeal and incubate at room temperature with shaking for 45 minutes. • 11. Wash plates 3× with 200 μL 0.1% Tween20/Water to terminate reaction. • 12. Add 50 μL per well of antibody mix and incubate for 1 hour at room temperature with shaking. • 13. Wash plates 3× with 200 μL 0.1% Tween20/Water. • 14. Add 100 μL DELFIA enhancement solution per well, cover in foil, and incubate at room temperature for 30 minutes with shaking. • 15. Read on Victor using Europium protocol.
Values for the blank (Empty Vector) are subtracted from all values. The DMSO controls are set as 100% activity and assay points (the response) are calculated as a percentage of the DMSO control. Data are plotted using Graphpad Prism software and a non-linear regression line is calculated using a variable slope sigmoidal dose-response equation (Y=Bottom+(Top−Bottom)/(1+10^((LogEC50−X)*HillSlope)) where X is the logarithm of concentration. Y is the response). The IC50 generated by this procedure is the concentration of the drug that produces a percentage control fluorescence value midway between the saturation, and zero-effect plateaus. Three independent assays are usually performed and the mean IC50 is reported.

T1 sequence (P15056 whole entry V600E): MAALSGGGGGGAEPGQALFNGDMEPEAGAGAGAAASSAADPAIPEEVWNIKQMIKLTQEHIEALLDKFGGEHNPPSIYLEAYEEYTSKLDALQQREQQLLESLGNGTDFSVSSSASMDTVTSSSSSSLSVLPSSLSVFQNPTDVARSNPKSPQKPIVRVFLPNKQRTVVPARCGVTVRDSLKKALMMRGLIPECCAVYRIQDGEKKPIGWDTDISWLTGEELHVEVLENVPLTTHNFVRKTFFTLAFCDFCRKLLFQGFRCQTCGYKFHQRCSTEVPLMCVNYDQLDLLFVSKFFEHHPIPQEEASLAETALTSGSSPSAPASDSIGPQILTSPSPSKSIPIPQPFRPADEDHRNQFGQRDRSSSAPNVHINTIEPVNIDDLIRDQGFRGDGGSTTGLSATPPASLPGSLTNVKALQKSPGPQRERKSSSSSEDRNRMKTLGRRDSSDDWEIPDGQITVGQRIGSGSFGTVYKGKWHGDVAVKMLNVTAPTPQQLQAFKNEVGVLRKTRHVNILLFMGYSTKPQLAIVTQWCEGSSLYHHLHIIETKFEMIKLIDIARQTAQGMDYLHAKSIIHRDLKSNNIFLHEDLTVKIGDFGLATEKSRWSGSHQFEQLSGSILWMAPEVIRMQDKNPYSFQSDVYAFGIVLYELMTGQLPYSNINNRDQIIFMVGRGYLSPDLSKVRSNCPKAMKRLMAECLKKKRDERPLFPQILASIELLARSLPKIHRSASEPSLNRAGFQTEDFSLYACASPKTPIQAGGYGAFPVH

Regarding `Cc1ccc(-n2nc(C(C)(C)C)cc2NC(=O)Nc2cccc(Oc3ccnc4ncc(=O)[nH]c34)c2)cc1` [AA-031, 1-(3-tert-butyl-1-p-tolyl-1H-pyrazol-5-yl)-3-(3-(2-oxo-1,2-dihydropyrido[2,3-b]pyrazin-8-yloxy)phenyl)urea], the half-inhibitory concentration (IC50) is < 1 µM and 0.1 to 1 µM. As for `O=C(Nc1ccc(Oc2ccnc3ncc(=O)[nH]c23)cc1F)Nc1cc(C(F)(F)F)ccc1F` [AA-047], the figure is less than 0.1 µM.

Consider `Cc1nc2nccc(Oc3ccc(NC(=O)Nc4cc(C(C)(C)C)nn4-c4ccccc4)c4ccccc34)c2[nH]c1=O` [AA-035, 1-(3-tert-butyl-1-phenyl-1H-pyrazol-5-yl)-3-(4-(3-methyl-2-oxo-1,2-dihydropyrido[2,3-b]pyrazin-8-yloxy)naphthalen-1-yl)urea], for which the IC50 lay in the range of 0.1 to 1 µM. Next, `Cc1nc2c(Oc3cccc(NC(=O)c4cccc(C(C)(C)C)c4)c3)ccnc2[nH]c1=O` [AA-005, 3-tert-butyl-N-(3-(2-methyl-3-oxo-3,4-dihydropyrido[2,3-b]pyrazin-8-yloxy)phenyl)benzamide]: less than 0.1 µM. Next, `Cc1nc2c(Oc3ccc(NC(=O)Nc4cc(C(F)(F)F)ccc4F)c4ccccc34)ccnc2[nH]c1=O` [AA-014, 1-(2-fluoro-5-(trifluoromethyl)phenyl)-3-(4-(2-methyl-3-oxo-3,4-dihydropyrido[2,3-b]pyrazin-8-yloxy)naphthalen-1-yl)urea]: less than 0.1 µM; `CN1CCN(c2cnc3c(Oc4ccc(NC(=O)Nc5cc(C(F)(F)F)ccc5F)c(F)c4)ccnc3n2)CC1` [AA-056, 1-(2-Fluoro-4-(3-(4-methylpiperazin-1-yl)pyrido[3,2-b]pyrazin-8-yloxy)phenyl)-3-(2-fluoro-5-(trifluoromethyl)phenyl)urea]: < 1 µM and 0.1 to 1 µM; `O=C(Nc1cc(C(F)(F)F)ccc1F)Nc1ccc(Oc2ccnc3[nH]c(=O)c(C(F)(F)F)nc23)c2ccccc12` [AA-082, 1-(2-fluoro-5-(trifluoromethyl)phenyl)-3-(4-(3-oxo-2-(trifluoromethyl)-3,4-dihydropyrido[2,3-b]pyrazin-8-yloxy)naphthalen-1-yl)urea]: 0.1 to 1 µM. In turn, `CSc1cc(Oc2ccnc3[nH]c(=O)c(=O)[nH]c23)ccc1NC(=O)Nc1ccc(Cl)c(C(F)(F)F)c1` [AA-051, 1-(4-chloro-3-(trifluoromethyl)phenyl)-3-(4-(2,3-dioxo-1,2,3,4-tetrahydropyrido[2,3-b]pyrazin-8-yloxy)-2-(methylthio)phenyl)urea] had a half-inhibitory concentration (IC50) of less than 0.1 µM. Next, `O=C(Nc1cccc(Oc2ccnc3ncc(=O)[nH]c23)c1)c1cccc(OC(F)(F)F)c1` [AA-030, N-(3-(2-oxo-1,2-dihydropyrido[2,3-b]pyrazin-8-yloxy)phenyl)-3-(trifluoromethoxy)benzamide]: < 1 µM and 0.1 to 1 µM. As for `CSc1cc(Oc2ccnc3[nH]c(=O)cnc23)ccc1NC(=O)Nc1ccc(Cl)c(C(F)(F)F)c1` [AA-023], the figure is less than 0.1 µM; as for `O=C(Nc1ccc(Oc2ccnc3[nH]c(=O)c(=O)[nH]c23)cc1)Nc1ccc(Cl)c(C(F)(F)F)c1` [AA-050, 1-(4-chloro-3-(trifluoromethyl)phenyl)-3-(4-(2,3-dioxo-1,2,3,4-tetrahydropyrido[2,3-b]pyrazin-8-yloxy)phenyl)urea], less than 0.1 µM; as for `O=C(Nc1cccc(Oc2ccnc3[nH]c(=O)cnc23)c1)c1cccc(OC(F)(F)F)c1` [AA-002, N-(3-(3-oxo-3,4-dihydropyrido[2,3-b]pyrazin-8-yloxy)phenyl)-3-(trifluoro-methoxy)benzamide], less than 0.1 µM. Next, `O=C(Nc1ccc(Oc2ccnc3ncc(=O)[nH]c23)cc1)Nc1cc(C(F)(F)F)ccc1F` [AA-043, 1-(2-fluoro-5-(trifluoromethyl)phenyl)-3-(4-(2-oxo-1,2-dihydropyrido[2,3-b]pyrazin-8-yloxy)phenyl)urea]: 0.1 to 1 µM; `Cc1ccc(-n2nc(C(C)(C)C)cc2NC(=O)Nc2ccc(Oc3ccnc4[nH]c(=O)cnc34)c3ccccc23)cc1` [AA-010, 1-(3-tert-butyl-1-p-tolyl-1H-pyrazol-5-yl)-3-(4-(3-oxo-3,4-dihydropyrido[2,3-b]pyrazin-8-yloxy)naphthalen-1-yl)urea]: less than 0.1 µM. `CC(C)(C)c1cc(NC(=O)Nc2ccc(Oc3ccnc4[nH]c(=O)cnc34)cc2F)n(-c2ccccc2)n1` [AA-019, 1-(3-tert-butyl-1-phenyl-1H-pyrazol-5-yl)-3-(2-fluoro-4-(3-oxo-3,4-dihydropyrido[3,2-b]pyrazin-8-yloxy)phenyl)urea] showed a concentration for half-maximal inhibition (IC50) of less than 0.1 µM. Next, `Cc1ccc(-n2nc(C(C)(C)C)cc2NC(=O)Nc2cccc(Oc3ccnc4[nH]c(=O)cnc34)c2)cc1` [AA-006, 1-(3-tert-butyl-1-p-tolyl-1H-pyrazol-5-yl)-3-(3-(3-oxo-3,4-dihydropyrido[2,3-b]pyrazin-8-yloxy)phenyl)urea]: less than 0.1 µM; `CSc1cc(Oc2ccnc3[nH]c(=O)cnc23)ccc1NC(=O)Nc1cc(C(C)(C)C)nn1-c1ccc(C)cc1` [AA-017, 1-(3-tert-butyl-1-p-tolyl-1H-pyrazol-5-yl)-3-(2-(methylthio)-4-(3-oxo-3,4-dihydropyrido[2,3-b]pyrazin-8-yloxy)phenyl)urea]: less than 0.1 µM.

Molecule `O=C(Nc1ccc(Cl)c(C(F)(F)F)c1)Nc1ccc(Oc2ccnc3ncc(=O)[nH]c23)cc1F` [AA-048, 1-(4-Chloro-3-(trifluoromethyl)phenyl)-3-(2-fluoro-4-(2-oxo-1,2-dihydropyrido[2,3-b]pyrazin-8-yloxy)phenyl)urea] came in with a half-inhibitory concentration (IC50) of less than 0.1 µM.

With `CSc1cc(Oc2ccnc3[nH]c(=O)cnc23)ccc1NC(=O)Nc1cc(C(F)(F)F)ccc1F` [AA-024, 1-(2-fluoro-5-(trifluoromethyl)phenyl)-3-(2-(methylthio)-4-(3-oxo-3,4-dihydropyrido[3,2-b]pyrazin-8-yloxy)phenyl)urea], the concentration for half-maximal inhibition (IC50) was less than 0.1 µM. As for `O=C(Nc1ccc(Oc2ccnc3nc(N4CCOCC4)cnc23)cc1F)Nc1cc(C(F)(F)F)ccc1F` [AA-054, 1-(2-Fluoro-4-(3-morpholinopyrido[2,3-b]pyrazin-8-yloxy)phenyl)-3-(2-fluoro-5-(trifluoromethyl)phenyl)urea], the figure is less than 0.1 µM. Next, `CC(C)(C)c1cccc(C(=O)Nc2cccc(Oc3ccnc4[nH]c(=O)cnc34)c2)c1` [AA-003, 3-tert-butyl-N-(3-(3-oxo-3,4-dihydropyrido[2,3-b]pyrazin-8-yloxy)phenyl)benzamide]: less than 0.1 µM. Next, `Cc1ccc(-n2nc(C(C)(C)C)cc2NC(=O)Nc2ccc(Oc3ccnc4ncc(=O)[nH]c34)cc2)cc1` [AA-040, 1-(3-tert-butyl-1-p-tolyl-1H-pyrazol-5-yl)-3-(4-(2-oxo-1,2-dihydropyrido[2,3-b]pyrazin-8-yloxy)phenyl)urea]: 0.1 to 1 µM; `Cc1nc2nccc(Oc3ccc(NC(=O)Nc4cc(C(F)(F)F)ccc4F)c4ccccc34)c2[nH]c1=O` [AA-039, 1-(2-fluoro-5-(trifluoromethyl)phenyl)-3-(4-(3-methyl-2-oxo-1,2-dihydropyrido[2,3-b]pyrazin-8-yloxy)naphthalen-1-yl)urea]: < 1 µM and 0.1 to 1 µM; `O=C(Nc1cccc(Oc2ccnc3ncc(=O)[nH]c23)c1)Nc1cc(C(F)(F)F)ccc1F` [AA-032, 1-(2-fluoro-5-(trifluoromethyl)phenyl)-3-(3-(2-oxo-1,2-dihydropyrido[2,3-b]pyrazin-8-yloxy)phenyl)urea]: less than 0.1 µM.

By IC50 is commonly meant the midpoint of a concentration-inhibition curve. The low end stands for greater potency in that assay, the high end for weaker potency in that assay.
